Ki and ED50 data for eleven compounds are collected here from patent EP0478964A1, “Pyrazoloquinoline derivatives” (SHIONOGI SEIYAKU KABUSHIKI KAISHA, priority 1990, dated 1992).

The target in one assay is BDZ receptor. Briefly: BDZ receptor binding assay (displacement of tritium labeled diazepam). Particulars: cerebral cortex of Wistar rats; 2nM tritium labeled diazepam; 0 °C for 60 minutes; Ki calculated from IC50. The procedure: This test was carried out according to the modified method of Möhler & Okada, Science, 198, 849-851 (1977).
The BDZ receptor preparation was provided from the cerebral cortex of Wistar rats (male, 11 to 13 week-old). Inhibitory activities of the test compound were determined by the specific binding strengh of tritium labeled diazepam to the receptor. 2nM tritium labeled diazepam and an aqeuous solution of the test compound at 5 or 6 different concentrations were incubated at 0 °C for 60 minutes. The 50 % inhibitory concentration (IC₅₀) was measured by the concentration-response curve.
The inhibitory constant (Ki) was calculated according to the following equation, in which Kd is the dissociation constant of the tritium labeled diazepam and L is the concentration of the labeled ligand. [formula]

Assay [1] relates to convulsion induced by pentylenetetrazol. Briefly: Test of potentiating convulsion induced by pentylenetetrazol (inverse agonist activity). It is filed as in vivo, mice. The note with it: Mus musculus, iv, read-out: ED₅₀. The procedure: Inverse agonist activity was evaluated by the following procedure. A certain amount of a test compound was administered intravenously to 8-16 male mice per group, followed by pentylenetetrazol at a subcuataneous dose of 90 mg/kg. The dose (ED₅₀) at which 50% of mice stayed alive, was calculated by the Probit method.

Assay [2] has the same test system. The assay is described as follows: Test of suppressing convulsion induced by pentylenetetrazol (agonist activity). The format is in vivo. The note with it: Mus musculus; male mice; test compound intravenously; pentylenetetrazol subcutaneous 125 mg/kg; dose at which 50% of mice was alive; Probit method; read-out: ED₅₀. Here is the method: Agonist activity was evaluated by the following procedure. A certain amount of a test compound was administered intravenously to 8-16 male mice per group, followed by pentylenetetrazol at a subcuataneous dose of 125 mg/kg. The dose (ED₅₀) at which 50% of mice was alive, was calculated by the Probit method.

For `O=c1c2c[nH]c3ccccc3c-2nn1C1=CCCC1` [I-1, 2-(Cyclopenten-1-yl)-2,5-dihydro-3H-pyrazolo[4,3-c]quinolin-3-one], the Ki on BDZ receptor was 0.52 nM. In addition, the ED50 in assay [1] (male mice, test compound intravenously, pentylenetetrazol subcutaneous 90 mg/kg, dose at which 50% of mice stayed alive, Probit method) is 1.07 mg/kg.
As to `COc1ccc2[nH]cc3c(=O)n(C4=CCOC4)nc-3c2c1` [I-11, 8-Methoxy-2-(2,5-dihydrofuran-3-yl)-2,5-dihydro-3H-pyrazolo[4,3-c]quinolin-3-one], on BDZ receptor, the Ki is 0.69 nM.
Same read-out and setting: the value for `O=c1c2c[nH]c3ccccc3c-2nn1C1=CCCCC1` [I-16] was 1.5 nM.
In the case of `CC(C)/C=C/n1nc2c3ccccc3[nH]cc-2c1=O` [I-21], the Ki at BDZ receptor is 0.98 nM. Further, the ED50 in assay [2] was 0.72 mg/kg.
In the case of `C/C=C/n1nc2c3ccccc3[nH]cc-2c1=O` [I-24], the Ki on BDZ receptor is 1 nM. Also, the ED50 in assay [1] was determined as 0.23 mg/kg.
Regarding `CC1CC=C(n2nc3c4ccccc4[nH]cc-3c2=O)CC1` (stereo not drawn) [I-25], the Ki on BDZ receptor was 3.1 nM. Also, the ED50 in assay [2] was 0.69 mg/kg.
On to `O=c1c2c[nH]c3ccc(F)cc3c-2nn1C1=CCCC1` [I-31], for which the Ki at BDZ receptor is 0.48 nM. In assay [1], the ED50 came to 0.81 mg/kg.
On to `COc1ccc2c3nn(C4=CCCC4)c(=O)c-3c[nH]c2c1` [I-34], for which the Ki at BDZ receptor was 2.1 nM.
With `Cc1ccc2[nH]cc3c(=O)n(C4=CCCC4)nc-3c2c1` [I-36], on BDZ receptor, the Ki was 0.48 nM. Moreover, in assay [1], the ED50 turned out to be 0.4 mg/kg.
For `O=c1c2c[nH]c3ccccc3c-2nn1C1=CCOC1` [I-38], the inhibition constant Ki at BDZ receptor was 0.59 nM.
As for `CC1(C)C=C(n2nc3c4ccccc4[nH]cc-3c2=O)CO1` [I-39], the Ki at BDZ receptor was 0.29 nM. Also, the ED50 in assay [2] is 0.19 mg/kg.
